Source: US20050228180A1, “Alpha, omega-dicarboximide derivatives as useful uro-selective a1a adrenoceptor blockers” (priority 2002, published 2005)

Legend:
[1] = biological target: T1, α1B adrenoceptor (spleen) (Rattus norvegicus, UniProt P15823); experiment: In vitro functional assay, isolated spleen, phenylepinephrine contraction; format: cell-based; settings: read-out: α Adrenoceptor Subtype (pKB) α1B (converted)
T1 construct: Isolated tissues were mounted in organ bath containing Krebs Henseleit buffer; from tissue; host or cells: isolated rat spleen
T1 sequence (P15823 1-515): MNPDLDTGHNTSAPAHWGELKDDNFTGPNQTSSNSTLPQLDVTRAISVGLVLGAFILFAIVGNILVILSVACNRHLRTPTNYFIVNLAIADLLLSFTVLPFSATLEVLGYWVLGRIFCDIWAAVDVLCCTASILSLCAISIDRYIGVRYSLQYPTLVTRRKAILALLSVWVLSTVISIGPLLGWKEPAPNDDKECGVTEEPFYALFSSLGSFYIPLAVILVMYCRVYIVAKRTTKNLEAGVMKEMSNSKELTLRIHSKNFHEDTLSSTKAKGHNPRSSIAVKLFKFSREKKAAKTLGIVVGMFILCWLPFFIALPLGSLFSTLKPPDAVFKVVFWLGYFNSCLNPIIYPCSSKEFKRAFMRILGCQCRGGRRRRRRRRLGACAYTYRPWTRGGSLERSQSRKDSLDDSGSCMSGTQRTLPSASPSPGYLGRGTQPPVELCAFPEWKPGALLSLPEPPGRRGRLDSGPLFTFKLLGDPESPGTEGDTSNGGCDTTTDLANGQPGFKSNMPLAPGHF
Text: In order to study selectivity of action of these compounds towards different a-adrenoceptor subtypes, the ability of these compounds to antagonise (α1D) prostate (α1A) and spleen (α1B) was studied. Aorta and spleen tissues were isolated from urethane anaesthetized (1.5 g/kg) male wister rats. Isolated tissues were mounted in organ bath containing Krebs Henseleit buffer of the following composition (mM): NaCl 118; KCl 4.7; CaCl2 2.5; MgSO4 7H2O 1.2; NaHCO3 25; KH2PO4 1.2; glucose 11.5. Buffer was maintained at 37° C. and aereated with a mixture of 95% O2 and 5% CO2. A resting tension of 2 g (aorta) or 1 g (spleen and prostate) was applied to tissues. Contractile response was monitored using a force displacement transducer and recorded on chart recorders. Tissues were allowed to equilibrate for 2 hours. At the end of equilibration period, concentration response curves to norepinephrine (aorta) and phenylepinephrine (spleen and prostate) were obtained in the absence and presence of tested compound (at concentration of […]). Antagonist affinity was calculated and expressed as pKB values in Table II.

[2] = biological target: T2, α1B adrenoceptor (Rattus norvegicus, UniProt P15823); experiment: Radioligand binding, [3H] prazosin displacement, rat liver membranes; settings: read-out: Affinity (Ki) α1B (Rat Liver)
T2 construct: from tissue; host or cells: rat liver membranes
T2 sequence (P15823 1-515): T1 sequence (P15823 1-515)
Procedure, shortened: (§1)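 Rat membranes (submaxillary for α1A, liver for α1B; 150-250 μg protein) incubated with [3H]prazosin and compound in Tris 50 mM/EDTA 5 mM pH 7.4, 1 h at 24-25° C. Nonspecific binding with 300 nM prazosin; filtration, counting; Ki via Cheng–Prusoff.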

[3] = biological target: T3, α1D adrenoceptor (aorta) (Rattus norvegicus, UniProt P23944); experiment: In vitro functional assay, isolated aorta, norepinephrine contraction; format: cell-based; settings: read-out: α Adrenoceptor Subtype (pKB) α1D (converted)
T3 construct: Isolated tissues were mounted in organ bath containing Krebs Henseleit buffer; from tissue; host or cells: isolated rat aorta
T3 sequence (P23944 1-561): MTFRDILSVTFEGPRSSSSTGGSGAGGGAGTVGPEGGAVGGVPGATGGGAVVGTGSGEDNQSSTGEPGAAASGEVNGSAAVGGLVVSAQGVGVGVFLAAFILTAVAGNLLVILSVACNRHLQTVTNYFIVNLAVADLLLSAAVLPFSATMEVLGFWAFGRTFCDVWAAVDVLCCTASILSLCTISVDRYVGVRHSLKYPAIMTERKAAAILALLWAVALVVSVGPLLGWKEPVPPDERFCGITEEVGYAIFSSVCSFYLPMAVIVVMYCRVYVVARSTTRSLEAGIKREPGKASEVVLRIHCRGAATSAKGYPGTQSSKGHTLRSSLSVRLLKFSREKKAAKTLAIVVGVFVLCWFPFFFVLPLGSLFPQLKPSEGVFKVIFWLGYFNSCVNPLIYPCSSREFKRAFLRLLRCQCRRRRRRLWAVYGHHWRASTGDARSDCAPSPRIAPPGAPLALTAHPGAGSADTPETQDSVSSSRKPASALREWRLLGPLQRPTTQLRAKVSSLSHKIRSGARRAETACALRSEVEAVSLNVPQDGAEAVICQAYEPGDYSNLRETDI
Procedure, shortened: (§2)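 Rat aorta, spleen and prostate strips from urethane-anaesthetised male Wistar rats in Krebs-Henseleit at 37 °C (95% O2/5% CO2), 2 g or 1 g resting tension, 2 h equilibration. Norepinephrine (aorta) or phenylephrine (spleen, prostate) contraction curves run without and with compound at […]; antagonist affinity given as pKB.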

[4] = biological target: T4, α1A adrenoceptor (prostate) (Rattus norvegicus, UniProt P43140); experiment: In vitro functional assay, isolated prostate, phenylepinephrine contraction; format: cell-based; settings: for Selectivity α1B/α1A / Selectivity α1D/α1A: functional, from pKB; for Kb: rat prostate, phenylepinephrine, read-out: α Adrenoceptor Subtype (pKB) α1A (converted)
T4 construct: from tissue; host or cells: isolated prostate tissue
T4 sequence (P43140 1-466): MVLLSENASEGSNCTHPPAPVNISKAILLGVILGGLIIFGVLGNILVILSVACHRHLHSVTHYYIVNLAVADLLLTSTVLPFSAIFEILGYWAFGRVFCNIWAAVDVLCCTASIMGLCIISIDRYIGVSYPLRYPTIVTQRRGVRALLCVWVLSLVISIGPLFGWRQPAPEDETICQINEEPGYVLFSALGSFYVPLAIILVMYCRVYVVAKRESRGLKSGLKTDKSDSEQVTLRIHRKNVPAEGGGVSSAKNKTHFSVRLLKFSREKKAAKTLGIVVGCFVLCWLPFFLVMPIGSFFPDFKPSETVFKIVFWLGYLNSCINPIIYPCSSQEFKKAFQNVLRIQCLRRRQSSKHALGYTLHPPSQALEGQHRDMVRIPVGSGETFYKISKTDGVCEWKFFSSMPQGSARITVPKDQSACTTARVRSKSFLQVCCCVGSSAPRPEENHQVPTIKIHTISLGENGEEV
Procedure, shortened: as §2

[5] = biological target: T5, α1A adrenoceptor (Rattus norvegicus, UniProt P43140); experiment: Radioligand binding, [3H] prazosin displacement, rat submaxillary membranes; settings: for Ki: [3H] prazosin displacement, rat submaxillary membranes, read-out: Affinity (Ki) α1A (Rat Submaxillary); for α1B/α1A: ratio of binding affinities, rat liver / rat submaxillary
T5 construct: from tissue; host or cells: rat submaxillary gland membranes
T5 sequence (P43140 1-466): T4 sequence (P43140 1-466)
Procedure, shortened: as §1

[6] = biological target: α1-adrenoceptor; settings: background statement; cited from earlier work

| Structure (SMILES) | Kb [1] [nM] | Ki [2] [nM] | Kb [3] [nM] | melting point [°C] | Selectivity α1B/α1A [4] | Selectivity α1D/α1A [4] | Kb [4] [nM] | Ki [5] [nM] | α1B/α1A [5] | α1-adrenergic blocking activity (pKi) [6] |
| --- | --- | --- | --- | --- | --- | --- | --- | --- | --- | --- |
| CC(C)Oc1ccccc1N1CCN(CCCN2C(=O)C3CC=CC(O)C3C2=O)CC1.Cl (stereo not shown) [Compound No. 41, 2-[3-{4-(2-Isopropoxyphenyl)piperazin-1-yl}propyl]-4-hydroxy-3a,4,7,7a-tetrahydro-1H-isoindole-1,3(2H)-dione hydrochloride] | 67.6 | 105 | 2.45 | 186 to 190 | 132 | 4.8 | 0.513 | 0.3 | 350 |  |
| CCOc1ccccc1N1CC[N+]([O-])(CCCN2C(=O)C3CC=CCC3C2=O)CC1 (stereo not shown) [compound 04, 2-[3-{4-(2-Ethoxyphenyl)piperazin-1-yl, 1-N-oxide}propyl]-3a,4,7,7a-tetrahydro-1H-isoindole-1,3(2H)-dione] | 7.08 | > 1000 | 81.3 | 75 to 80 | 2.9 | 33 | 2.45 | 22 | >45 |  |
| COc1cc2nc(N3CCN(C(=O)c4ccco4)CC3)nc(N)c2cc1OC [prazosin] |  |  |  |  |  |  |  |  |  | > 8 |
